Test results published in ChEMBL document CHEMBL5226286, “The application of isatin-based multicomponent-reactions in the quest for new bioactive and druglike molecules” (Eur J Med Chem, 2021).
≈ marks a conversion by molar mass, not a printed value.

Legend:
PC-3 = test: Antiproliferative activity against human PC-3 cells; type: functional, cell-based
LNCaP = test: Antiproliferative activity against human LNCaP cells; type: functional, cell-based
Escherichia coli [1] = test: Antibacterial activity against Escherichia coli assessed as zone of inhibition; type: functional
Staphylococcus aureus [2] = test: Antibacterial activity against Staphylococcus aureus assessed as zone of inhibition; type: functional
Acetylcholinesterase = Acetylcholinesterase (Homo sapiens, UniProt P22303); test: Inhibition of AChE (unknown origin)
Cholinesterase = Cholinesterase (Homo sapiens, UniProt P06276); test: Inhibition of BChE (unknown origin)
Bacillus pumilus = test: Antibacterial activity against Bacillus pumilus PTCC 1114; type: functional
[3] = system: Staphylococcus epidermidis; test: Antibacterial activity against Staphylococcus epidermidis ATCC 12228; type: functional
Klebsiella pneumoniae = test: Antibacterial activity against Klebsiella pneumoniae ATCC 29655; type: functional
Bacillus subtilis = test: Antibacterial activity against Bacillus subtilis ATCC 465; type: functional
Micrococcus luteus = test: Antibacterial activity against Micrococcus luteus PTCC 1110; type: functional
Pseudomonas aeruginosa [4] = test: Antibacterial activity against Pseudomonas aeruginosa ATCC 85327; type: functional
Streptococcus mutans = test: Antibacterial activity against Streptococcus mutans PTCC 1601; type: functional
Staphylococcus aureus [5] = test: Antibacterial activity against Staphylococcus aureus ATCC 25923; type: functional
Escherichia coli [6] = test: Antimicrobial activity against Escherichia coli ATCC 25922; type: functional
Enterococcus faecalis = test: Antibacterial activity against Enterococcus faecalis ATCC 29737; type: functional
MCF7 = test: Antiproliferative activity against human MCF7 cells by MTT reduction assay; type: functional, cell-based
T47D = test: Antiproliferative activity against human T47D cells by MTT reduction assay; type: functional, cell-based
MDA-MB-231 = test: Antiproliferative activity against human MDA-MB-231 cells by MTT reduction assay; type: functional, cell-based
Pseudomonas aeruginosa [7] = test: Antibacterial activity against multidrug resistant Pseudomonas aeruginosa 034; type: functional
Pseudomonas aeruginosa [8] = test: Antibacterial activity against multidrug resistant Pseudomonas aeruginosa 025; type: functional
Candida tropicalis = test: Antifungal activity against Candida tropicalis; type: functional
Nakaseomyces glabratus = test: Antifungal activity against Candida glabrata; type: functional
Candida albicans [9] = test: Antifungal activity against Candida albicans; type: functional
Aspergillus niger [10] = test: Antifungal activity against Aspergillus niger assessed as zone of inhibition at 25 ug/ml; type: functional; details: read-out: DIZ
Candida metapsilosis = test: Antifungal activity against Candida metapsilosis assessed as zone of inhibition at 25 ug/ml; type: functional; details: Lodderomyces metapsilosis, read-out: DIZ
K562 = test: Anticancer activity against human K562 cells by MTT assay; type: functional, cell-based
A549 = test: Anticancer activity against human A549 cells by MTT assay; type: functional, cell-based
Staphylococcus aureus [11] = test: Antibacterial activity against Staphylococcus aureus NCIM5021 by microdilution broth method; type: functional
Salmonella sp. = test: Antibacterial activity against Salmonella sp. NCIM 2501 by microdilution broth method; type: functional
Pseudomonas aeruginosa [12] = test: Antibacterial activity against Pseudomonas aeruginosa NCIM 5029 by microdilution broth method; type: functional
Escherichia coli [13] = test: Antibacterial activity against Escherichia coli NCIM 2931 by microdilution broth method; type: functional
Proteus vulgaris = test: Antibacterial activity against Proteus vulgaris NCIM 2813 by microdilution broth method; type: functional
MDA-MB-435 = test: Antiproliferative activity against human MDA-MB-435 cells; type: functional, cell-based
SMMC-7721 = test: Antiproliferative activity against human SMMC-7721 cells; type: functional, cell-based
MGC-803 = test: Antiproliferative activity against human MGC-803 cells; type: functional, cell-based
ECa-109 cell line = test: Antiproliferative activity against human EC109 cells; type: functional, cell-based
Candida albicans [14] = test: Antifungal activity against Candida albicans RCMB 05036 assessed as zone of inhibition; type: functional
[15] = system: Syncephalastrum racemosum; test: Antifungal activity against Syncephalastrum racemosum RCMB 05922 assessed as zone of inhibition; type: functional
Geotrichum candidum = test: Antifungal activity against Geotrichum candidum RCMB 05097 assessed as zone of inhibition; type: functional
Aspergillus fumigatus = test: Antifungal activity against Aspergillus fumigatus RCMB 02568 assessed as zone of inhibition; type: functional
Aspergillus flavus = test: Antifungal activity against Aspergillus flavus; type: functional
Aspergillus niger [16] = test: Antifungal activity against Aspergillus niger; type: functional

Chain of Acetylcholinesterase (P22303 whole entry): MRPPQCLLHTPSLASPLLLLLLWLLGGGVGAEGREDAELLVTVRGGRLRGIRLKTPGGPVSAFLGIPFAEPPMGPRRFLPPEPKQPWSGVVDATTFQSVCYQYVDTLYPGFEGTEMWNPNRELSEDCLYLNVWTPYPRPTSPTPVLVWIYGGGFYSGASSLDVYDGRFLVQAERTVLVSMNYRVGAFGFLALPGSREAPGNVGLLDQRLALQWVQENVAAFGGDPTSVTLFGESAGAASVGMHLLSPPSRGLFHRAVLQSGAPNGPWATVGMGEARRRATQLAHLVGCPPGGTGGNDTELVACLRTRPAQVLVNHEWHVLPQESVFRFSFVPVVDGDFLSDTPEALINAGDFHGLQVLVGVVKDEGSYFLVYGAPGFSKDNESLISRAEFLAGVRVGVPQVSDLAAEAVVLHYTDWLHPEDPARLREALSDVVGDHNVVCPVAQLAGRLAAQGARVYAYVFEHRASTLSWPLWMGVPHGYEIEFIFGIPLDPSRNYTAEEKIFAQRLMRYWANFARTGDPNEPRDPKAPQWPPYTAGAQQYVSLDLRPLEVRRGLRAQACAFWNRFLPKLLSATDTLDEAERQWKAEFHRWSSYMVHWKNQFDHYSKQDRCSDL
Chain of Cholinesterase (P06276 whole entry): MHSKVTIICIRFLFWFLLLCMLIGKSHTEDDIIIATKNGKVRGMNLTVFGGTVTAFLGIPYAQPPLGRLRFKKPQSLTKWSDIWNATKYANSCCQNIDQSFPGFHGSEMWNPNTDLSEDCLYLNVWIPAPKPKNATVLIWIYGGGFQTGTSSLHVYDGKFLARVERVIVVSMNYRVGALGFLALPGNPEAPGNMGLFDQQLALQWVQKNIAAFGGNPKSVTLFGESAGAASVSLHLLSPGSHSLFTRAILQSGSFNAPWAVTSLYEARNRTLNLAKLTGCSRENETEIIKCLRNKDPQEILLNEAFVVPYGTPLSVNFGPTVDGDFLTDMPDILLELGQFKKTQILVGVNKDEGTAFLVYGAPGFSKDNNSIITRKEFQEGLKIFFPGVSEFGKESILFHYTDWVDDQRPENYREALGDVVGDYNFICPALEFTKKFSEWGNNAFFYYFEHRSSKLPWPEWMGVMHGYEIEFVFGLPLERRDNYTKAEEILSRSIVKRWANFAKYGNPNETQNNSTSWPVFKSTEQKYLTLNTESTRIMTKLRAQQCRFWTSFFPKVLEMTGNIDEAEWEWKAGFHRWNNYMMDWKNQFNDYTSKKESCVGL

O=C1c2ccccc2C2Oc3c(c(=O)oc4ccccc34)C3(C(=O)N(c4ccc(Cl)cc4)c4ccccc43)C12 (stereo not drawn)
IC50 (PC-3): 0.08 µM
IC50 (LNCaP): 1.3 µM

CCOC1=Nc2ccccc2/C1=C\C(=O)c1ccc(Cl)cc1
diameter of the inhibition zone (DIZ) (Escherichia coli [1]): 6 mm
diameter of the inhibition zone (DIZ) (Staphylococcus aureus [2]): 6 mm

COc1cc2c(cc1OC)C(=O)[C@]1(C2)[C@H](c2cccc([N+](=O)[O-])c2)[C@H](Cc2c[nH]c3ccccc23)NC12C(=O)Nc1ccccc12 (stereo partly drawn)
IC50 (Acetylcholinesterase): 1.89 µM
IC50 (Cholinesterase): 28.4 µM

O=C1c2ccccc2NC2(C(=O)Nc3ccc([N+](=O)[O-])cc32)N1Nc1ccccc1 (stereo not drawn)
MIC (Bacillus pumilus): 4 µg/mL (≈ 9.97 µM)
MIC [3]: 4 µg/mL (≈ 9.97 µM)
MIC (Klebsiella pneumoniae): 8 µg/mL (≈ 19.9 µM)
MIC (Bacillus subtilis): 4 µg/mL (≈ 9.97 µM)
MIC (Micrococcus luteus): 8 µg/mL (≈ 19.9 µM)
MIC (Pseudomonas aeruginosa [4]): 32 µg/mL (≈ 79.7 µM)
MIC (Streptococcus mutans): < 2 µg/mL
MIC (Staphylococcus aureus [5]): 4 µg/mL (≈ 9.97 µM)
MIC (Escherichia coli [6]): 4 µg/mL (≈ 9.97 µM)
MIC (Enterococcus faecalis): 16 µg/mL (≈ 39.9 µM)

O=C(c1ccc(OCCN2CCCC2)cc1)[C@H]1[C@H](c2ccccc2)C2CS[C@H](c3ccccc3)N2C12C(=O)Nc1ccc(F)cc12 (stereo partly drawn)
IC50 (MCF7): 5.4 µM
IC50 (T47D): 6.2 µM
IC50 (MDA-MB-231): 5.8 µM

C[C@H]1COc2c(N3CCN(C)CC3)c(F)cc3c(=O)c(C(=O)O)cn1c23.C[C@H]1COc2c(N3CCN(C)CC3)c(F)cc3c(=O)c(C(=O)O)cn1c23.O [LEVOFLOXACIN]
MIC (Pseudomonas aeruginosa [7]): > 64 µg/mL
MIC (Pseudomonas aeruginosa [8]): > 64 µg/mL

O=C(c1ccc(-c2ccc(F)cc2F)cc1)C1C(c2ccc(Cl)cc2)C2CCCN2C12C(=O)Nc1ccccc12 (stereo not drawn)
MIC (Candida tropicalis): 25 µg/mL (≈ 45 µM)
MIC (Nakaseomyces glabratus): 25 µg/mL (≈ 45 µM)
MIC (Candida albicans [9]): 12.5 µg/mL (≈ 22.5 µM)

O=C1c2c(Cl)cccc2NC2(C(=O)Nc3ccc([N+](=O)[O-])cc32)N1Nc1ccccc1 (stereo not drawn)
MIC (Bacillus pumilus): < 2 µg/mL
MIC [3]: 2 µg/mL (≈ 4.59 µM)
MIC (Klebsiella pneumoniae): 16 µg/mL (≈ 36.7 µM)
MIC (Bacillus subtilis): < 2 µg/mL
MIC (Micrococcus luteus): 2 µg/mL (≈ 4.59 µM)
MIC (Pseudomonas aeruginosa [4]): 16 µg/mL (≈ 36.7 µM)
MIC (Streptococcus mutans): 8 µg/mL (≈ 18.4 µM)
MIC (Staphylococcus aureus [5]): 2 µg/mL (≈ 4.59 µM)
MIC (Escherichia coli [6]): < 2 µg/mL
MIC (Enterococcus faecalis): 8 µg/mL (≈ 18.4 µM)

CCOC1=Nc2ccccc2/C1=C\C(=O)c1ccccc1O
zone of inhibition at 25 µg/mL (Aspergillus niger [10]): 10 mm
zone of inhibition at 25 µg/mL (Candida metapsilosis): 11 mm

CC(C)=CC(=O)[C@H]1[C@H](c2ccc(F)cc2)CN(C)[C@]12C(=O)N(C)c1ccccc12
IC50 (K562): 7.2 µM
IC50 (A549): 19.1 µM

O=C1Nc2ccccc2[C@@]1(O)[C@@]1(OCc2ccc(Cl)cc2)C(=O)Nc2ccccc21
MIC (Staphylococcus aureus [11]): 0.149 µg/mL (≈ 0.354 µM)
MIC (Salmonella sp.): 0.074 µg/mL (≈ 0.176 µM)
MIC (Pseudomonas aeruginosa [12]): 0.074 µg/mL (≈ 0.176 µM)
MIC (Escherichia coli [13]): 0.074 µg/mL (≈ 0.176 µM)
MIC (Proteus vulgaris): 0.149 µg/mL (≈ 0.354 µM)

CC/C(=C(\c1ccccc1)c1ccc(OCCN(C)C)cc1)c1ccccc1 [TAMOXIFEN]
IC50 (MDA-MB-435): 0.1 µM
IC50 (T47D): 14.2 µM
IC50 (MDA-MB-231): 14.5 µM

COc1cccc([C@@H]2[C@H](Cc3c[nH]c4ccccc34)NC3(C(=O)Nc4ccccc43)[C@@]23Cc2cc(OC)c(OC)cc2C3=O)c1 (stereo partly drawn)
IC50 (Acetylcholinesterase): 2.31 µM
IC50 (Cholinesterase): 8.32 µM

O=C1c2c(Cl)cccc2NC2(C(=O)Nc3ccc(Br)cc32)N1Nc1ccccc1 (stereo not drawn)
MIC (Bacillus pumilus): < 2 µg/mL
MIC [3]: 2 µg/mL (≈ 4.26 µM)
MIC (Klebsiella pneumoniae): 4 µg/mL (≈ 8.52 µM)
MIC (Bacillus subtilis): 4 µg/mL (≈ 8.52 µM)
MIC (Micrococcus luteus): 4 µg/mL (≈ 8.52 µM)
MIC (Pseudomonas aeruginosa [4]): 8 µg/mL (≈ 17 µM)
MIC (Streptococcus mutans): < 2 µg/mL
MIC (Staphylococcus aureus [5]): 2 µg/mL (≈ 4.26 µM)
MIC (Escherichia coli [6]): < 2 µg/mL
MIC (Enterococcus faecalis): < 2 µg/mL

O=C1Nc2ccccc2[C@@]1(O)[C@@]1(OCc2ccc(Br)cc2)C(=O)Nc2ccccc21
MIC (Staphylococcus aureus [11]): 0.067 µg/mL (≈ 0.144 µM)
MIC (Salmonella sp.): 0.034 µg/mL (≈ 0.0731 µM)
MIC (Pseudomonas aeruginosa [12]): 0.067 µg/mL (≈ 0.144 µM)
MIC (Escherichia coli [13]): 0.034 µg/mL (≈ 0.0731 µM)
MIC (Proteus vulgaris): 0.067 µg/mL (≈ 0.144 µM)

C[C@]12CC[C@H](O)CC1=CCC1C2CC[C@@]2(C)C1CC[C@@H]2C1=CC2(C(=O)Nc3ccc(Cl)cc32)C(C#N)=C(N)N1 (stereo partly drawn)
IC50 (SMMC-7721): 9.6 µM
IC50 (MGC-803): 4.2 µM
IC50 (ECa-109 cell line): 3.8 µM

Cc1ccc([C@H]2[C@@]3(SC(=S)NC3=O)C3CCCN3[C@@]23C(=O)Nc2ccccc23)cc1 (stereo partly drawn)
diameter of the inhibition zone (DIZ) (Candida albicans [14]): 27 mm
diameter of the inhibition zone (DIZ) [15]: 19 mm
diameter of the inhibition zone (DIZ) (Geotrichum candidum): 27 mm
diameter of the inhibition zone (DIZ) (Aspergillus fumigatus): 18 mm

COc1ccc(CO[C@]2([C@@]3(O)C(=O)Nc4ccccc43)C(=O)Nc3ccccc32)cc1
MIC (Staphylococcus aureus [11]): 0.075 µg/mL (≈ 0.18 µM)
MIC (Salmonella sp.): 0.038 µg/mL (≈ 0.0913 µM)
MIC (Pseudomonas aeruginosa [12]): 0.038 µg/mL (≈ 0.0913 µM)
MIC (Escherichia coli [13]): 0.038 µg/mL (≈ 0.0913 µM)
MIC (Proteus vulgaris): 0.075 µg/mL (≈ 0.18 µM)

O=C1c2ccccc2C2Oc3c(c(=O)oc4ccccc34)C3(C(=O)Nc4ccc(Br)cc43)C12 (stereo not drawn)
IC50 (PC-3): 0.03 µM
IC50 (LNCaP): 1.9 µM

OC(Cn1cncn1)(Cn1cncn1)c1ccc(F)cc1F [FLUCONAZOLE]
MIC (Aspergillus flavus): 20 µg/mL (≈ 65.3 µM)
diameter of the inhibition zone (DIZ) (Candida albicans [14]): 28 mm
MIC (Aspergillus niger [16]): 20 µg/mL (≈ 65.3 µM)
diameter of the inhibition zone (DIZ) [15]: 24.1 mm
diameter of the inhibition zone (DIZ) (Geotrichum candidum): 30 mm
diameter of the inhibition zone (DIZ) (Aspergillus fumigatus): 25 mm
